Laboratory results taken from PubChem BioAssay (NCI).
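96-well plates; 48 h exposure; 5 concentrations. Endpoints by linear interpolation between flanking doses. Not reached: highest tested concentration assigned. Here, GI50 denotes the concentration required for 50% inhibition of growth. TGI denotes the concentration required for complete inhibition of growth.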

What was measured:
Assay in all cases: growth of human tumour cells (NCI), 48 h
DU-145 prostate = system: DU-145 prostate
SK-MEL-28 melanoma = system: SK-MEL-28 melanoma
OVCAR-5 ovarian = system: OVCAR-5 ovarian
NCI/ADR-RES ovarian = system: NCI/ADR-RES ovarian
HS 578T breast = system: HS 578T breast
A498 renal = system: A498 renal
NCI-H23 lung = system: NCI-H23 lung
NCI-H522 lung = system: NCI-H522 lung
TK-10 renal = system: TK-10 renal
MCF7 breast = system: MCF7 breast
CAKI-1 renal = system: CAKI-1 renal
UACC-62 melanoma = system: UACC-62 melanoma
HOP-92 NSCLC = system: HOP-92 NSCLC
EKVX NSCLC = system: EKVX NSCLC
OVCAR-3 ovarian = system: OVCAR-3 ovarian
A549 NSCLC = system: A549 NSCLC
T-47D breast = system: T-47D breast
SNB-19 CNS = system: SNB-19 CNS
SK-MEL-5 melanoma = system: SK-MEL-5 melanoma
MDA-MB-231 breast = system: MDA-MB-231 breast
BT-549 breast = system: BT-549 breast
SR leukemia = system: SR leukemia
UACC-257 melanoma = system: UACC-257 melanoma
HL-60(TB) leukemia = system: HL-60(TB) leukemia
RPMI-8226 leukemia = system: RPMI-8226 leukemia
ACHN renal = system: ACHN renal
OVCAR-8 ovarian = system: OVCAR-8 ovarian
CCRF-CEM leukemia = system: CCRF-CEM leukemia
SK-OV-3 ovarian = system: SK-OV-3 ovarian
SF-268 CNS = system: SF-268 CNS
K-562 leukemia = system: K-562 leukemia
U251 CNS = system: U251 CNS
PC-3 prostate = system: PC-3 prostate
SW-620 colon = system: SW-620 colon
RXF 393 renal = system: RXF 393 renal
MDA-MB-435 = system: MDA-MB-435
MALME-3M melanoma = system: MALME-3M melanoma
COLO 205 colon = system: COLO 205 colon
786-0 renal = system: 786-0 renal
SN12C renal = system: SN12C renal
LOX IMVI melanoma = system: LOX IMVI melanoma
IGROV1 ovarian = system: IGROV1 ovarian
SK-MEL-2 melanoma = system: SK-MEL-2 melanoma
KM12 colon = system: KM12 colon
M14 melanoma = system: M14 melanoma
HCT-116 colon = system: HCT-116 colon
OVCAR-4 ovarian = system: OVCAR-4 ovarian
SNB-75 CNS = system: SNB-75 CNS
SF-539 CNS = system: SF-539 CNS
SF-295 CNS = system: SF-295 CNS
UO-31 renal = system: UO-31 renal
HT29 colon = system: HT29 colon
MOLT-4 leukemia = system: MOLT-4 leukemia
HOP-62 NSCLC = system: HOP-62 NSCLC
HCT-15 colon = system: HCT-15 colon
HCC-2998 colon = system: HCC-2998 colon
NCI-H460 lung = system: NCI-H460 lung
NCI-H226 lung = system: NCI-H226 lung

CC(C)C[C@H](NC(=O)[C@H](CCc1ccccc1)NC(=O)CN1CCOCC1)C(=O)N[C@@H](Cc1ccccc1)C(=O)N[C@@H](CC(C)C)C(=O)[C@@]1(C)CO1
GI50 (DU-145 prostate): 18.3 nM | TGI (DU-145 prostate): 1370 nM | GI50 (SK-MEL-28 melanoma): 47.5 nM | TGI (SK-MEL-28 melanoma): 1570 nM | GI50 (OVCAR-5 ovarian): 25.5 nM | TGI (OVCAR-5 ovarian): 112 nM | GI50 (NCI/ADR-RES ovarian): 636 nM | TGI (NCI/ADR-RES ovarian): > 100000 nM | GI50 (HS 578T breast): 22.4 nM | TGI (HS 578T breast): 3340 nM | GI50 (A498 renal): 22.7 nM | TGI (A498 renal): 98.7 nM | GI50 (NCI-H23 lung): < 15 nM | TGI (NCI-H23 lung): 115 nM | GI50 (NCI-H522 lung): < 10 nM | TGI (NCI-H522 lung): 23.9 nM | GI50 (TK-10 renal): 14.4 nM | TGI (TK-10 renal): 93.4 nM | GI50 (MCF7 breast): < 10 nM | TGI (MCF7 breast): 5410 nM | GI50 (CAKI-1 renal): 109 nM | TGI (CAKI-1 renal): 781 nM | GI50 (UACC-62 melanoma): 33 nM | TGI (UACC-62 melanoma): 114 nM | GI50 (HOP-92 NSCLC): 23.6 nM | TGI (HOP-92 NSCLC): 81.2 nM | GI50 (EKVX NSCLC): 56.6 nM | GI50 (OVCAR-3 ovarian): < 10 nM | TGI (OVCAR-3 ovarian): 17.2 nM | GI50 (A549 NSCLC): 20.3 nM | TGI (A549 NSCLC): 204 nM | GI50 (T-47D breast): < 12.8 nM | TGI (T-47D breast): 28 nM | GI50 (SNB-19 CNS): < 16.4 nM | TGI (SNB-19 CNS): > 100000 nM | GI50 (SK-MEL-5 melanoma): < 13.6 nM | TGI (SK-MEL-5 melanoma): 43.4 nM | GI50 (MDA-MB-231 breast): < 12.8 nM | TGI (MDA-MB-231 breast): 63.5 nM | GI50 (BT-549 breast): < 10 nM | TGI (BT-549 breast): 24.2 nM | GI50 (SR leukemia): 14.9 nM | TGI (SR leukemia): > 100000 nM | GI50 (UACC-257 melanoma): 54.7 nM | TGI (UACC-257 melanoma): 287 nM | GI50 (HL-60(TB) leukemia): 26.8 nM | TGI (HL-60(TB) leukemia): 93 nM | GI50 (RPMI-8226 leukemia): < 10 nM | GI50 (ACHN renal): 36.6 nM | TGI (ACHN renal): 2660 nM | GI50 (OVCAR-8 ovarian): 20.4 nM | TGI (OVCAR-8 ovarian): 95.2 nM | GI50 (CCRF-CEM leukemia): < 10 nM | TGI (CCRF-CEM leukemia): > 100000 nM | GI50 (SK-OV-3 ovarian): 25.3 nM | TGI (SK-OV-3 ovarian): 282 nM | GI50 (SF-268 CNS): < 10 nM | TGI (SF-268 CNS): 252 nM | GI50 (K-562 leukemia): 25.2 nM | TGI (K-562 leukemia): > 100000 nM | GI50 (U251 CNS): < 12.7 nM | TGI (U251 CNS): 63.2 nM | GI50 (PC-3 prostate): 24.7 nM | TGI (PC-3 prostate): 305 nM | GI50 (SW-620 colon): < 10 nM | GI50 (RXF 393 renal): < 14 nM | TGI (RXF 393 renal): 24.6 nM | GI50 (MDA-MB-435): < 10 nM | TGI (MDA-MB-435): 17.3 nM | GI50 (MALME-3M melanoma): 52.7 nM | TGI (MALME-3M melanoma): 586 nM | GI50 (COLO 205 colon): < 16.5 nM | TGI (COLO 205 colon): 172 nM | GI50 (786-0 renal): 31.1 nM | TGI (786-0 renal): 332 nM | GI50 (SN12C renal): < 13.2 nM | TGI (SN12C renal): 34.9 nM | GI50 (LOX IMVI melanoma): < 10 nM | TGI (LOX IMVI melanoma): 13.5 nM | GI50 (IGROV1 ovarian): 32.4 nM | GI50 (SK-MEL-2 melanoma): 14.4 nM | TGI (SK-MEL-2 melanoma): 54.3 nM | GI50 (KM12 colon): < 10 nM | TGI (KM12 colon): 19.9 nM | GI50 (M14 melanoma): < 13.1 nM | TGI (M14 melanoma): 44.6 nM | GI50 (HCT-116 colon): < 10 nM | TGI (HCT-116 colon): < 12.5 nM | GI50 (OVCAR-4 ovarian): < 11.7 nM | GI50 (SNB-75 CNS): 18 nM | TGI (SNB-75 CNS): 50.9 nM | GI50 (SF-539 CNS): < 13.3 nM | TGI (SF-539 CNS): 36.7 nM | GI50 (SF-295 CNS): < 10 nM | TGI (SF-295 CNS): 56.1 nM | GI50 (UO-31 renal): 116 nM | TGI (UO-31 renal): 575 nM | GI50 (HT29 colon): < 10 nM | TGI (HT29 colon): 47.1 nM | GI50 (MOLT-4 leukemia): < 10 nM | TGI (MOLT-4 leukemia): > 100000 nM | GI50 (HOP-62 NSCLC): < 13.9 nM | TGI (HOP-62 NSCLC): < 22.9 nM | GI50 (HCT-15 colon): 83 nM | TGI (HCT-15 colon): 1600 nM | GI50 (HCC-2998 colon): < 11.8 nM | TGI (HCC-2998 colon): 22.7 nM | GI50 (NCI-H460 lung): 23.5 nM | TGI (NCI-H460 lung): 153 nM | GI50 (NCI-H226 lung): < 12.2 nM | TGI (NCI-H226 lung): < 17.5 nM
